Earlier results in patent US10631556B2, “Method for conducing concentrated cannabis oil to be stable, emulsifiable and flavorless for use in hot beverages and resulting powderized cannabis oil” (Pivot Naturals, LLC., priority 2015, dated 2020).

Assays:
[1] = molecular target: CYP 2C9 (Homo sapiens, UniProt P11712); conditions: anecdotal online article
[2] = system: Mice; conditions: odor inhaled from ambient air for 1 hour
[3] = mice, odor inhaled from ambient air for 1 hour
[4] = system: Mice
[5] = inhalation

CYP 2C9, sequence (P11712 whole entry): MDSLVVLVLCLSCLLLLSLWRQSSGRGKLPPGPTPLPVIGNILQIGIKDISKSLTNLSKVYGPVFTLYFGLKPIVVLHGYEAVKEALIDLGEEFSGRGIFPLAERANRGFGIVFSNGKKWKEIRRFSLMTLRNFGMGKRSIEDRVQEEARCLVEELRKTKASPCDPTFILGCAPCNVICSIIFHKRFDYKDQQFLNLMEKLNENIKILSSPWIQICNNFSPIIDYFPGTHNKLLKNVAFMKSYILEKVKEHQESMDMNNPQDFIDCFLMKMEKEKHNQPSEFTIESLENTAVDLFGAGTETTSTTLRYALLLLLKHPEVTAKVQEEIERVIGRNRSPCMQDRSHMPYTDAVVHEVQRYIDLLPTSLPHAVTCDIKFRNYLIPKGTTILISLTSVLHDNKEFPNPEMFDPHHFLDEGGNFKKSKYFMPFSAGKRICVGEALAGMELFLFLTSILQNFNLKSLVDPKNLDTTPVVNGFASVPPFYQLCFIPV

Molecule: O=C(/C=C/C=C/c1ccc2c(c1)OCO2)N1CCCCC1 [Piperine]
- inhibition of CYP 2C9 [1]: strongly

Molecule: CCCCCc1cc(O)c2c(c1)OC(C)(C)[C@@H]1CCC(C)=C[C@@H]21 [THC, tetrahydrocannabinol]
- solubility in most organic solvents (organic solvents, specifically lipids and alcohols): good
- solubility in water (water): very low

Molecule: C=CC(C)(O)CCC=C(C)C (centres unmarked) [linalool]
- reduction in motility [2]: 73%
- serum concentration [3]: 4.22 ng/mL

Molecule: C=CC(=C)CCC=C(C)C [myrcene]
- muscle relaxant effect [4]: acted as a muscle relaxant
- barbiturate sleep time ([4]; high doses): potentiated barbiturate sleep time

Molecule: pinene
- increase in mouse activity [2]: 13.77%
- serum concentration [3]: trace
- human pulmonary uptake [5]: 60%

Molecule: C=C(C)[C@H]1CC=C(C)CC1 [Limonene]
- human pulmonary uptake [5]: 70%
